Like-named read-outs stand apart in the source and are kept apart here. Each block holds one compound with its values, some of them ahead of it.
Assays:
HeLa cells [1] = assay: MTT cell viability, HeLa; assay type: cell-based, human; conditions: 24 h
Method: (§1) To ensure logarithmic growth, cells were subcultured every two days. As control cells, human peripheral blood mononuclear cells (PBMC) were isolated from buffy coats of healthy donors (kindly provided by the Blood Center of the Hospital of Battipaglia, Salerno, Italy) by using standard Ficoll−Hypaque gradients. […] Proliferation of PBMC was induced by phytohemagglutinin (PHA) (10 µg mL^−1). Tumor and PBMC cells were treated with different concentrations of geraniin or 17-AAG to evaluate their cytotoxic effects. Stock solutions of geraniin (50 mM in DMSO) and 17-AAG (10 mM in DMSO) were stored a −20°C in the dark and diluted just before addition to the sterile culture medium. In all the experiments, the final concentration of DMSO was 0.10% (v/v).
(§2) Jurkat (2×10^4/well) and HeLa (5000/well) cells were seeded in triplicate in 96 well−plates and incubated for 24 h in the absence or presence of different concentrations of geraniin (between 0,5 µM to 50 µM) or 17-AAG (between 0,5 nM to 10 µM).
(§3) The number of viable cells was determined by using a [3–4,5-dimethyldiazol-2-yl]-2,5-diphenyl tetrazolium bromide (MTT, Sigma-Aldrich) conversion assay, according to the method described by Mosmann. […] The absorbance was measured with a microplate reader (Titertek multiskan MCC7340, LabSystems, Vienna, VA, USA) equipped with a 620 nm filter. […]

Jurkat cells [2] = assay: MTT cell viability, Jurkat; assay type: cell-based, human; conditions: 24 h
Method: as §1, §2, §3

[3] = test system: PBMC (human Peripheral Blood Mononuclear Cells); assay: Cytotoxicity in PHA-stimulated proliferating PBMC; assay type: cell-based; conditions: 24 h, trypan blue, only at high doses
Method: as §1, with “Tumor and PBMC cells were treated with different concentrations of geraniin or 17-AAG to evaluate their cytotoxic effects.” left out
The number of viable cells was determined by using a [3–4,5-dimethyldiazol-2-yl]-2,5-diphenyl tetrazolium bromide (MTT, Sigma-Aldrich) conversion assay, according to the method described by Mosmann. Briefly, following the treatment, 25 µL of MTT (5 mg/mL in PBS) was added and the cells were incubated for additional 3 h at 37°C. Thereafter, cells were lysed and suspended with 100 µL of buffer containing 50% (v/v) N,N-dimethylformamide, 20% SDS (pH 4.5). The absorbance was measured with a microplate reader (Titertek multiskan MCC7340, LabSystems, Vienna, VA, USA) equipped with a 620 nm filter. Cell population growth inhibition was tested by cytometric counting (trypan blu exclusion).

Jurkat cells [4] = assay: Cell cycle and hypodiploidy by flow cytometry (PI), Jurkat; assay type: cell-based, human; conditions: 24 h, geraniin 0.7 µM, 17-AAG 10 µM
Method: (§4) Cell DNA content was measured by propidium iodide (PI) incorporation into permeabilized cells, as described by Nicoletti et al.. Briefly, the cells were harvested after geraniin or 17-AAG treatments were washed with cold PBS and incubated with a PI solution (0.1% sodium citrate, 0.1% Triton X-100 and 50 µg mL^−1 of prodium iodide, Sigma-Aldrich, 10 µg/ml Rnase A) for 30 min at room temperature. Data from 10.000 events per sample were collected by a FACScalibur flow cytometer (Becton Dickinson, San José, CA) and cellular debris was excluded from analysis by raising the forward scatter threshold. The percentage of cells in the sub G0/G1 phase, apoptotic fraction, was quantified using CellQuest software (Becton Dickinson). The distribution of cells in G0/G1, S, G2/M phases was determined using ModFit LT cell cycle analysis software (Becton Dickinson). Results were expressed as a mean ± SD of three experiments performed in triplicate.
(§5) Figure 6 Effects of geraniin and 17-AAG on cell cycle progression. Percentage of cell cycle stages was analyzed by flow cytometry, (A) PI-stained viable Jurkat cells treated with DMSO, 0.7 µM geraniin or 10 µM 17-AAG for 24 h.

HeLa cells [5] = assay: Cell cycle and hypodiploidy by flow cytometry (PI), HeLa; assay type: cell-based, human; conditions: 24 h, geraniin 5 µM, 17-AAG 0.2 µM
Method: as §4, §5

[6] = test system: PHA-stimulated proliferating PBMC; assay: Hypodiploidy/necrosis by flow cytometry, PHA-stimulated PBMC; assay type: cell-based, human; conditions: untreated cells 1.5±0.8%
Method: Jurkat and HeLa (epithelial carcinoma) cells, obtained from Cell Bank in GMP-IST (Genova, Italy) were maintained in RPMI 1640 medium or Dulbecco’s modified Eagle medium (DMEM), respectively, supplemented with 10% (v/v) FBS, 2 mM L−glutamine and antibiotics (100 U mL^−1 penicillin, 100 µg mL^−1 streptomycin) purchased from Invitrogen (Carslbad, CA, USA), at 37°C in humidified atmosphere with 5% CO2. To ensure logarithmic growth, cells were subcultured every two days. As control cells, human peripheral blood mononuclear cells (PBMC) were isolated from buffy coats of healthy donors (kindly provided by the Blood Center of the Hospital of Battipaglia, Salerno, Italy) by using standard Ficoll−Hypaque gradients. Freshly isolated PBMC contained 92.8±3.1% live cells. Proliferation of PBMC was induced by phytohemagglutinin (PHA) (10 µg mL^−1). […]
Cell DNA content was measured by propidium iodide (PI) incorporation into permeabilized cells, as described by Nicoletti et al.. […] The percentage of cells in the sub G0/G1 phase, apoptotic fraction, was quantified using CellQuest software (Becton Dickinson). The distribution of cells in G0/G1, S, G2/M phases was determined using ModFit LT cell cycle analysis software (Becton Dickinson). Results were expressed as a mean ± SD of three experiments performed in triplicate.

recombinant Hsp90α = target: T1, recombinant Hsp90α (Homo sapiens, UniProt P07900); assay: Surface plasmon resonance binding to immobilized Hsp90α
T1 construct: purchased Assay Designs (Ann Arbor, MI, USA)
Method: SPR analyses were carried out according to our previously published procedures, [23]. Briefly, SPR analyses were performed using a Biacore 3000 optical biosensor equipped with research−grade CM5 sensor chips (GE Healthcare). Using this platform, two separate recombinant Hsp90α surfaces, a BSA surface and one unmodified reference surface were prepared for simultaneous analyses. Proteins (100 µg mL^−1 in 10 mM CH3COONa, pH 5.0) were immobilized on individual sensor chip surfaces at a flow rate of 5 µL min^−1 using standard amine−coupling protocols to obtain densities of 8–12 kRU. Polyphenols, as well as 17-AAG and hardwickiic acid (HA), were dissolved in 100% DMSO to obtain 4 mM solutions, and diluted 1∶200 (v/v) in PBS (10 mM NaH2PO4, 150 mM NaCl, pH 7.4) to a final DMSO concentration of 0.5%. […] Binding experiments were performed at 25°C, using a flow rate of 50 µL min^−1, with 60 s monitoring of association and 300 s monitoring of dissociation. Simple interactions were suitably fitted to a single−site bimolecular interaction model (A+B = AB), yielding a single K D. Sensorgram elaborations were performed using the BIAevaluation software provided by GE Healthcare.
Putative interactions of different plant-derived phenolic compounds with Hsp90α were evaluated by a SPR-based approach.

[7] = target: T2, Hsp90α chaperone activity (Homo sapiens, UniProt P07900); assay: Citrate synthase thermal-induced aggregation assay (chaperone activity); assay type: biochemical; conditions: 0.075 µM CS, 0.075 µM Hsp90α, 0.3 µM ATP, four-fold molar excess (0.3 µM) compound, 43°C
T2 construct: purchased Assay Designs (Ann Arbor, MI, USA)
Method: Chaperone activity was evaluated by monitoring the thermal−induced aggregation of citrate synthase (CS) (0.075 µM), as reported elsewhere, in the absence or presence of a stoichiometric amount of Hsp90α and 0.3 µM ATP, and with or without a four−fold molar excess of each testing compound. Aggregation was initiated by unfolding CS incubating the protein in 40 mM HEPES–KOH, pH 7.5 at 43°C. Aggregation was monitored by measuring light scattering at right angles with the Perkin Elmer LS 55 fluorimeter in stirred and thermostatted quartz cells. Both the emission and excitation wavelengths were set at 500 nm, while the band–pass was 2 nm. Kinetics traces reported are the averages of two separate measurements.
Figure 3 Inhibition of Hsp90α activity. ATPase activity of the chaperone was evaluated in the presence of different concentrations of geraniin, 17-AAG and HA (A). Data are reported as the residual ATPase activity (%) compared to that observed for an untreated sample. Data are the mean of three independent experiments performed in triplicate and were analyzed by t test (HA vs testing compounds): The error bar represents the standard deviation of nine measurements, while * indicates significance at P<0.01. Aggregation kinetics of citrate synthase (CS) at 43°C determined by light scattering (B). […]

[8] = SPR, immobilized Hsp90α, 25°C, single-site bimolecular model, 0.025-1 µM, read-out: KD

SMILES: C=CCNC1=C2C[C@@H](C)C[C@H](OC)[C@H](O)[C@@H](C)/C=C(\C)[C@H](OC(N)=O)[C@@H](OC)/C=C\C=C(/C)C(=O)NC(=CC1=O)C2=O [Compound 17-AAG, 17-(allylamino)-17-demethoxygeldanamycin, reference compound]
IC50 (HeLa cells [1]): 0.2 ± 0.3 µM | IC50 (Jurkat cells [2]): 9.6 ± 0.15 µM | cytotoxic effects in control PBMC [3]: Minimal cytotoxic effects | cell cycle arrest (Jurkat cells [4]): G1 and G2/M arrest | percentage of cells with hypodiploid nuclei (Jurkat cells [4]): 6.05±0.4% | cell cycle arrest (HeLa cells [5]): G1 and G2/M arrest | percentage of cells with hypodiploid nuclei (HeLa cells [5]): 11.6±0.5% | levels of hypodiploidy/necrosis [6]: 1.8±0.6%

SMILES: COc1cc(-c2oc3cc(O)cc(O)c3c(=O)c2O)ccc1O [Compound 5]
Kd (recombinant Hsp90α): 0.748 ± 0.045 µM

SMILES: O=c1c(O)c(-c2ccc(O)cc2)oc2cc(O)cc(O)c12 [Compound 2]
Kd (recombinant Hsp90α; [8]): 4.83 ± 0.515 µM

SMILES: O=c1c(O)c(-c2ccc(O)c(O)c2)oc2cc(O)ccc12 [Compound 4]
Kd (recombinant Hsp90α; [8]): 5.33 ± 0.862 µM

The remaining lines, values ahead:

Kd (recombinant Hsp90α; [8]): 8.75 ± 0.735 µM
SMILES: O=c1cc(-c2ccc(O)cc2)oc2cc(O)cc(O)c12 [Compound 19]

Kd (recombinant Hsp90α; [8]): 1.82 ± 0.242 µM
SMILES: O=C1c2c(O)cc(O)cc2OC(c2ccc(O)c(O)c2)C1O (stereo not shown) [Compound 34]

Kd (recombinant Hsp90α; [8]): 2.21 ± 0.351 µM
SMILES: CC(=O)Oc1cc(OC(C)=O)c2c(=O)c(OC(C)=O)c(-c3ccc(OC(C)=O)c(OC(C)=O)c3)oc2c1 [Compound 6]

KD (recombinant Hsp90α; SPR, immobilized Hsp90α, 25°C, single-site bimolecular model, 0.025-1 µM): No binding | effect on citrate synthase aggregation kinetics in the presence of Hsp90α [7]: did not perturb the CS+Hsp90α curve
SMILES: C[C@@H]1CC[C@@]2(C)C(C(=O)O)=CCC[C@@H]2[C@@]1(C)CCc1ccoc1 [HA, hardwickiic acid, reference compound]

Reference: publication PMC3774728, “Identification of the Plant Compound Geraniin as a Novel Hsp90 Inhibitor” (PLoS ONE, 2013)
